Source: US8129413B2, “Crystalline forms of MC4R agonist and process for synthesis” (Merck Sharp & Dohme Corp., priority 2005, dated 2012)
One block for each compound: values may come before it.

Columns and labels:
Type in all cases: physicochemical
[1] = Thermodynamic stability and interconversion of crystalline forms
Method: (§1) Method 2 Drying the crystalline hydrate mono HCl salt of Compound I (1-7) at a temperature over about 4° C. and relative a humidity less than about 10% yields the crystalline anhydrous mono HCl salt Form I of Compound I (1-5). The crystalline hydrate mono HCl salt of Compound I (1-7) converts to the crystalline anhydrous mono HCl salt Form I of Compound I (1-5) by means of a continuous change; as the crystalline hydrate is dried, the x-ray diffraction pattern, solid-state carbon-13 CPMAS, and solid-state fluorine-19 MAS patterns merge from the crystalline hydrate to crystalline anhydrous Form I. Incomplete conversion to the anhydrous form I will yield a unique phase, not merely a mixture of crystalline anhydrous form I and crystalline hydrate.

[2] = Storage stability of the free base
[3] = Crystal form conversion on exposure to relative humidity
Method: as §1
Method 1 A solution of compound 1-3 from Example 1 (14.6 g, 26.7 mmol) in isopropyl acetate (91 ml, at 160 g/L) was agitated in vessel 1 at 15-25° C., and 0.5 N HCl/H2O solution (54.4 mL, 27.2 mmol) was added. The mixture was aged for 5-10 minutes with agitation followed by settling without agitation. The aqueous layer was removed and transferred to vessel 2. 20 ml of deionized water were charged to vessel 1, as a rinse of the isopropyl acetate layer. After agitating the isopropyl acetate-deionized water mixture for about 5 minutes, the aqueous layer was removed and combined with the aqueous layer in vessel 2. […]

SMILES: CC(=O)N[C@@H](C)c1cc(Cl)ccc1C1CCN(C(=O)C2CN(C(C)(C)C)C[C@H]2c2ccc(F)cc2F)CC1 (stereo partly drawn) [Compound 1-6]
physical stability of the crystal form (conversion to another form) ([1]; room temperature): converts to crystalline anhydrous mono HCl salt Form I (1-5) at room temperature

storage temperature above which subject to oxidation ([2]; stored): greater than −40 °C
SMILES: CC(=O)N[C@@H](C)c1cc(Cl)ccc1C1CCN(C(=O)[C@@H]2CN(C(C)(C)C)C[C@H]2c2ccc(F)cc2F)CC1 [Compound I, N-{(1S)-1-[2-(1-{[(3S,4R)-1-tert-butyl-4-(2,4-difluorophenyl)pyrrolidin-3-yl]carbonyl}piperidin-4-yl)-5-chlorophenyl]ethyl}acetamide]
stability of the solid form ([2]; storage, light, heat): unstable, photosensitive and thermally sensitive

relative humidity at which anhydrous Form I converts to crystalline hydrate mono HCl salt ([3]; exposure to humidity, continuous structural change): greater than 20%
SMILES: CC(=O)N[C@@H](C)c1cc(Cl)ccc1C1CCN(C(=O)C2CN(C(C)(C)C)C[C@H]2c2ccc(F)cc2F)CC1 (stereo partly drawn) [Compound 1-5]

relative humidity at which hydrate converts to anhydrous mono HCl salt Form I ([3]; drying at a temperature over about 4° C.): less than 10%
SMILES: CC(=O)N[C@@H](C)c1cc(Cl)ccc1C1CCN(C(=O)C2CN(C(C)(C)C)C[C@H]2c2ccc(F)cc2F)CC1 (stereo partly drawn) [Compound 1-7]
thermodynamic stability among crystalline forms ([1]; ambient conditions): most thermodynamically stable crystalline form
